According to the supplement of paper PMC10307832:

How the values were obtained:
Assay in all cases: relative viability (nuclei count vs DMSO), 5 days (fraction); higher = more cells survive
[1] = compound: CS(=O)(=O)c1ccc(-c2cnc(N)c(C(=O)Nc3ccccc3)n2)cc1 [VE-821] + CC(=O)c1c(C)c2cnc(Nc3ccc(N4CCNCC4)cn3)nc2n(C2CCCC2)c1=O [Palbociclib] (partner 0.5 µM)
In short: (§1)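 Five library-drug doses in √10 steps were combined with a fixed anchor-drug dose, or a single drug was given alone, by pin tool to lung cancer cell lines in 1536-well plates the day after seeding. Nuclei were stained and counted after 5 days. Relative viability is the nuclei count in treated wells over that in vehicle wells, taken as the median of duplicate plates.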

[2] = compound: CS(=O)(=O)c1ccc(C(=O)Nc2ccc(Cl)c(-c3ccccn3)c2)c(Cl)c1 [Vismodegib] + N=C(N)NC(=N)NCCc1ccccc1 [Phenformin] (partner 250 µM)
In short: as §1

[3] = compound: CS(=O)(=O)c1ccc(C(=O)Nc2ccc(Cl)c(-c3ccccn3)c2)c(Cl)c1 [Vismodegib] + O=C(c1cc(Cc2n[nH]c(=O)c3ccccc23)ccc1F)N1CCN(C(=O)C2CC2)CC1 [Olaparib] (partner 8 µM)
In short: as §1

[4] = compound: N#CC[C@H](C1CCCC1)n1cc(-c2ncnc3[nH]ccc23)cn1 [Ruxolitinib] + N=C(N)NC(=N)NCCc1ccccc1 [Phenformin] (partner 250 µM)
In short: as §1

Cell Line	relative viability ([1]; first compound 0.08 µM)	relative viability ([1]; first compound 0.253 µM)	relative viability ([1]; first compound 0.8 µM)	relative viability ([1]; first compound 2.53 µM)	relative viability ([1]; first compound 8 µM)	relative viability ([2]; first compound 0.08 µM)	relative viability ([2]; first compound 0.253 µM)	relative viability ([2]; first compound 0.8 µM)	relative viability ([2]; first compound 2.53 µM)	relative viability ([2]; first compound 8 µM)	relative viability ([3]; first compound 0.08 µM)	relative viability ([3]; first compound 0.253 µM)	relative viability ([3]; first compound 0.8 µM)	relative viability ([3]; first compound 2.53 µM)	relative viability ([3]; first compound 8 µM)	relative viability ([4]; first compound 0.08 µM)	relative viability ([4]; first compound 0.253 µM)	relative viability ([4]; first compound 0.8 µM)	relative viability ([4]; first compound 2.53 µM)	relative viability ([4]; first compound 8 µM)
NCI-H2126	0.36	0.336	0.333	0.296	0.32	0.529	0.517	0.482	0.493	0.506	0.887	0.966	0.928	0.849	0.969	0.518	0.474	0.568	0.528	0.522
NCI-H460	0.203	0.166	0.159	0.0414	0.0344	0.516	0.512	0.561	0.508	0.595	0.413	0.409	0.437	0.382	0.439	0.484	0.54	0.549	0.443	0.445
SW 900	0.549	0.52	0.46	0.542	0.36	0.615	0.612	0.718	0.744	0.676	0.743	0.866	0.784		0.803	0.532	0.624	0.702	0.543	0.457
NCI-H1703											0.495	0.42	0.543	0.349	0.44					
NCI-H1395	0.725	0.658	0.549	0.586	0.516	0.345	0.397	0.411	0.439	0.485	0.467	0.553	0.494	0.468	0.491	0.435	0.418	0.489	0.455	0.408
NCI-H647	0.385	0.297	0.349	0.371	0.15	0.439	0.491	0.509	0.507	0.433	0.66	0.508	0.669	0.368	0.479	0.481	0.517	0.502	0.481	0.531
NCI-H23	0.562	0.49	0.466	0.352	0.274	0.765	0.728	0.806	0.742	0.731	0.321	0.277	0.26	0.296	0.409	0.892	0.807	0.804	0.67	0.727
EBC-1											0.662	0.674	0.751	0.69	0.74					
NCI-H1299											0.913	0.964	0.967	0.935	0.951					
Calu-6											0.589	0.558	0.562	0.434	0.587					
IA-LM											0.841	0.853	0.892	0.773	0.941					
NCI-H1648	0.269		0.252	0.265	0.349						0.781	0.767	0.46	0.645	0.872					
A549						0.151	0.148	0.226	0.115	0.155	0.247	0.358	0.31	0.352	0.194	0.0714	0.144	0.198	0.127	0.15
